This is an account of results in ChEMBL document CHEMBL1137918, “Synthesis and antiproliferative activity of 2-aryl-4-oxo-thiazolidin-3-yl-amides for prostate cancer” (Bioorg Med Chem Lett, 2004).

In general, IC50 refers to the concentration needed to halve the response being measured. A high value points to weaker potency.

Assay type in all cases: functional, cell-based
Assay [1] relates to LNCaP. Put plainly: Antiproliferative activity was evaluated against human prostate LNCaP cancer cell lines using the sulforhodamine B ([…]) assay.
The nature of assay [2]: Antiproliferative activity was evaluated against human prostate PPC-1 cancer cell lines using the sulforhodamine B ([…]) assay.
Assay [3] deals with DU-145. The assay can be described thus: Antiproliferative activity was evaluated against human prostate DU-145 cancer cell lines using the sulforhodamine B ([…]) assay.
The nature of assay [4]: Antiproliferative activity was evaluated against human prostate TSU cancer cell lines using the sulforhodamine B ([…]) assay.
Assay [5] deals with PC-3. The assay can be described thus: Antiproliferative activity was evaluated against human prostate PC-3 cancer cell lines using the sulforhodamine B ([…]) assay.

The structures appear in SMILES notation. Bounds are passed on as bounds.

As to `CCCCCCCCCCCCCCCCCCNCCN1CCSC1c1ccccc1` (centres undefined), the IC50 was over 20 µM in assay [1]; 12 µM in assay [2]; 15.8 µM in assay [3]; 6.1 µM in assay [4]; over 20 µM in assay [5].
For the compound `COc1ccc(CCNC(=O)CN2C(=O)CSC2c2ccccc2)cc1OC` (centres undefined), the IC50 in assay [1], in assay [2], in assay [4] and in assay [5] was over 100 µM each time.
